Measurements taken from patent US20250346605A1, “NEW DERIVATIVES FOR TREATING TRPM3 MEDIATED DISORDERS” (Katholieke Universiteit Leuven, priority 2022, published 2025).

molecular target: T1, mouse TRPM3α2 (mTRPM3) ion channel (Mus musculus, UniProt J9SQF3); test: TRPM3 ion channel driven Ca2+ uptake (Fluo-4 AM assay), PS-stimulated overexpressing HEK293 cells; type: cell-based; settings: flip-in HEK293 overexpressing TRPM3, stimulated with Pregnenolone sulfate (PS) 50 μM, activity ranges A, B, C
T1 construct: expressed in transfected cells; host or cells: Flp-In HEK293
T1 sequence (J9SQF3 1-1709 isoform J9SQF3-12): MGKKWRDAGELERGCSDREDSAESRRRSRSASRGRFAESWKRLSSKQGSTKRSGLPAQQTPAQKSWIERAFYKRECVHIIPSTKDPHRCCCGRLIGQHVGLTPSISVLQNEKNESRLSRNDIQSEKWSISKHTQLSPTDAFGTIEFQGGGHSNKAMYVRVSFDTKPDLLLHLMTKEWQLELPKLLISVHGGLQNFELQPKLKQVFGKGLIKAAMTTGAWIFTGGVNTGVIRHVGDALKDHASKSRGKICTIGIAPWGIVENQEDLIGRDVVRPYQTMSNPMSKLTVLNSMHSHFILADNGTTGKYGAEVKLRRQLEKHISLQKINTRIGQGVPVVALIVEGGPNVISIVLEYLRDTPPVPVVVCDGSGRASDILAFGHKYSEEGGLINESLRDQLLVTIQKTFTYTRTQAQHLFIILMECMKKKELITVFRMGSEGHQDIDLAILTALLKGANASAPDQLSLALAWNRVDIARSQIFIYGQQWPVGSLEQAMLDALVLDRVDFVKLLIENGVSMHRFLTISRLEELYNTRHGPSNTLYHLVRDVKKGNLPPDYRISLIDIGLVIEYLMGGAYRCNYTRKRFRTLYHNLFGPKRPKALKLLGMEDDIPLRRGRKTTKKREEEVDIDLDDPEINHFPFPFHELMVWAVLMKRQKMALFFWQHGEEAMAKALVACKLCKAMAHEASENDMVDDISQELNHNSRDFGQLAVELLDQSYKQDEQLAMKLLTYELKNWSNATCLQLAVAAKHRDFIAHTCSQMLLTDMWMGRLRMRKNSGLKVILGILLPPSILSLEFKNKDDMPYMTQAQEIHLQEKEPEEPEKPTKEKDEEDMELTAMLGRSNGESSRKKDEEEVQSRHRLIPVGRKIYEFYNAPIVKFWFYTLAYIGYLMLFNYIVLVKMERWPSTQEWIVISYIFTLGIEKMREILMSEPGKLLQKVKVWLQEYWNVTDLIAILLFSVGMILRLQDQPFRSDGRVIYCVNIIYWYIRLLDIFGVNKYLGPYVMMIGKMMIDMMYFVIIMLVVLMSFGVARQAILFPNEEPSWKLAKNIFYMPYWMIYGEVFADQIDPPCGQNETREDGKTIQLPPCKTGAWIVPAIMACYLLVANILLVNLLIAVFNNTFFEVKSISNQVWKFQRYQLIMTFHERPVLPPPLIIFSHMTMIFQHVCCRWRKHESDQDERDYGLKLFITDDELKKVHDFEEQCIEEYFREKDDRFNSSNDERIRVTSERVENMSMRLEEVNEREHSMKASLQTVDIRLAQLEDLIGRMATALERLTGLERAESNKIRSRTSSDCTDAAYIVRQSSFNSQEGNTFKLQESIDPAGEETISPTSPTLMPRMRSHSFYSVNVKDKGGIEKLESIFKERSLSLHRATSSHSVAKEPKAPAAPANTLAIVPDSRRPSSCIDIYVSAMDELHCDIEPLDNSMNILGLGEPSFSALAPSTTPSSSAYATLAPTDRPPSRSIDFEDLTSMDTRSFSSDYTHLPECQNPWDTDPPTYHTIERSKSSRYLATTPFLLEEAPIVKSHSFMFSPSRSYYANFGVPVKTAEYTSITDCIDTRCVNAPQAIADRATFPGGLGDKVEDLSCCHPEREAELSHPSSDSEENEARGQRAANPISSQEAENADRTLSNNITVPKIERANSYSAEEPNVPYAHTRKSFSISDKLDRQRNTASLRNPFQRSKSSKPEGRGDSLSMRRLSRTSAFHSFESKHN
Method: In order to monitor the inhibition of the mouse TRPM3α2 (mTRPM3) ion channel by the compounds of the invention, a cellular system making use of an mTRPM3alpha2 or hTRPM3 overexpressing cell line (flip-in HEK293) was used. The TRPM3 channel was stimulated/opened with Pregnenolone sulfate (PS) (50 μM) which results in Ca^2+ influx.
For mTRPM3, the intracellular Ca^2+ was measured with a Calcium responsive dye, Fluor-4 AMV ester (Invitrogen). Cells were cultured until a confluence of 80-90%, washed with Versene (Invitrogen) and detached from the surface by a short incubation with 0.05% Trypsin (Invitrogen). The trypsination process was stopped by the addition of complete cell culture medium (DMEM, glutamax, 10% FCS, NEAA, Pen-Strep). Cells were collected and resuspended in Krebs buffer without Calcium at RT.
Prior the cell seeding (±2000 cells/well into a black, 384 well plate (Greiner)) the diluted compound was added in the assay plate, together with the PS dissolved in Krebs buffer containing Calcium. […] Directly after cell addition the plates were read on an Envision fluorescence reader (Perkin Elmer) by an Excitation of 485 nm and emission at 535 nm.
Channel inhibition was calculated compared to a non-PS stimulated control versus a condition stimulated with PS (50 μM) with vehicle. The ability of the compounds of the invention to inhibit this activity was determined as: Percentage inhibition=[1-((RFU determined for sample with test compound present−RFU determined for sample with positive control inhibitor) divided by (RFU determined in the presence of vehicle−RFU determined for sample with positive control inhibitor))]*100.
The activities of the Example compounds tested are depicted in the table below. The activity ranges A, B and C refer to IC50 values in the Fluo-4 AM assay as follows: “A”: IC50<1 μM; “B”: 1 μM≤IC50≤20 μM and “C”: IC50>20 μM

Row | IC50 [µM] | Structure (SMILES)
1 | 1 to 20 | Cc1oc2cnc(OCc3ccccn3)cc2c1C(=O)NC(C)(C)C(N)=O [Cpd 012, 2-methyl-2-({2-methyl-5-[(pyridin-2-yl)methoxy]furo[2,3-c]pyridin-3-yl}formamido)propanamide]
2 | > 20 | Cc1oc2cnc(OCc3ccccc3)cc2c1C(=O)NC1(CO)CCOCC1 [Cpd 016, 5-(benzyloxy)-N-[4-(hydroxymethyl)oxan-4-yl]-2-methylfuro[2,3-c]pyridine-3-carboxamide]
3 | 1 to 20 | Cc1oc2cnc(OCc3ccccc3F)cc2c1C(=O)NC1(CO)CC1 [Cpd 018, 5-[(2-fluorophenyl)methoxy]-N-[1-(hydroxymethyl)cyclopropyl]-2-methylfuro[2,3-c]pyridine-3-carboxamide]
4 | > 20 | Cc1ncsc1COc1cc2c(C(=O)NC3(C(N)=O)COC3)c(C)oc2cn1 [Cpd 019, N-(3-carbamoyloxetan-3-yl)-2-methyl-5-[(4-methyl-1,3-thiazol-5-yl)methoxy]furo[2,3-c]pyridine-3-carboxamide]
5 | 1 to 20 | Cc1oc2cnc(OCc3ccccn3)cc2c1C(=O)NC1(C(N)=O)COC1 [Cpd 020, N-(3-carbamoyloxetan-3-yl)-2-methyl-5-[(pyridin-2-yl)methoxy]furo[2,3-c]pyridine-3-carboxamide]
6 | 1 to 20 | Cc1oc2cnc(OCCc3ccccc3)cc2c1C(=O)NC1CNCC1(F)F (stereo not shown) [Cpd 022-En1, N-(4,4-difluoropyrrolidin-3-yl)-2-methyl-5-(2-phenylethoxy)furo[2,3-c]pyridine-3-carboxamide]
7 | 1 to 20 | Cc1ncsc1CCOc1cc2c(C(=O)NC3CNCC3(F)F)c(C)oc2cn1 (stereo not shown) [Cpd 023-En1, N-(4,4-difluoropyrrolidin-3-yl)-2-methyl-5-[2-(4-methyl-1,3-thiazol-5-yl)ethoxy]furo[2,3-c]pyridine-3-carboxamide]
8 | 1 to 20 | Cc1oc2cnc(OCc3ccccn3)cc2c1C(=O)NC1(C(N)=O)CCOCC1 [Cpd 024, N-(4-carbamoyloxan-4-yl)-2-methyl-5-[(pyridin-2-yl)methoxy]furo[2,3-c]pyridine-3-carboxamide]
9 | < 1 | Cc1oc2cnc(OCc3cccnc3C(F)(F)F)cc2c1C(=O)N[C@@H]1CCNCC1(F)F [Cpd 025, N-[(4R)-3,3-difluoropiperidin-4-yl]-2-methyl-5-{[2-(trifluoromethyl)pyridin-3-yl]methoxy}furo[2,3-c]pyridine-3-carboxamide]
10 | 1 to 20 | Cc1oc2cnc(OCc3cccnc3C(F)(F)F)cc2c1C(=O)N[C@H]1CCNCC1(F)F [Cpd 026, N-[(4S)-3,3-difluoropiperidin-4-yl]-2-methyl-5-{[2-(trifluoromethyl)pyridin-3-yl]methoxy}furo[2,3-c]pyridine-3-carboxamide]
11 | 1 to 20 | Cc1oc2cnc(OCc3ccccn3)cc2c1C(=O)NC1CCN(CCO)C1=O (stereo not shown) [Cpd 027, N-[1-(2-hydroxyethyl)-2-oxopyrrolidin-3-yl]-2-methyl-5-[(pyridin-2-yl)methoxy]furo[2,3-c]pyridine-3-carboxamide]
12 | 1 to 20 | Cc1ncsc1COc1cc2c(C(=O)NC3(CO)CCC3)c(C)oc2cn1 [Cpd 028, N-[1-(hydroxymethyl)cyclobutyl]-2-methyl-5-[(4-methyl-1,3-thiazol-5-yl)methoxy]furo[2,3-c]pyridine-3-carboxamide]
13 | 1 to 20 | Cc1oc2cnc(OCc3ccccn3)cc2c1C(=O)NC1(CO)CCC1 [Cpd 029, N-[1-(hydroxymethyl)cyclobutyl]-2-methyl-5-[(pyridin-2-yl)methoxy]furo[2,3-c]pyridine-3-carboxamide]
14 | > 20 | Cc1ncsc1COc1cc2c(C(=O)NC3(CO)CC3)c(C)oc2cn1 [Cpd 030, N-[1-(hydroxymethyl)cyclopropyl]-2-methyl-5-[(4-methyl-1,3-thiazol-5-yl)methoxy]furo[2,3-c]pyridine-3-carboxamide]
15 | > 20 | Cc1oc2cnc(OCc3ccccn3)cc2c1C(=O)NC1(CO)CC1 [Cpd 031, N-[1-(hydroxymethyl)cyclopropyl]-2-methyl-5-[(pyridin-2-yl)methoxy]furo[2,3-c]pyridine-3-carboxamide]
16 | > 20 | COc1ncccc1COc1cc2c(C(=O)NC3(CO)CC3)c(C)oc2cn1 [Cpd 032, N-[1-(hydroxymethyl)cyclopropyl]-5-[(2-methoxypyridin-3-yl)methoxy]-2-methylfuro[2,3-c]pyridine-3-carboxamide]
17 | 1 to 20 | Cc1ncsc1COc1cc2c(C(=O)NC3(CO)COC3)c(C)oc2cn1 [Cpd 033, N-[3-(hydroxymethyl)oxetan-3-yl]-2-methyl-5-[(4-methyl-1,3-thiazol-5-yl)methoxy]furo[2,3-c]pyridine-3-carboxamide]
18 | > 20 | Cc1oc2cnc(OCc3ccccn3)cc2c1C(=O)NC1(CO)COC1 [Cpd 034, N-[3-(hydroxymethyl)oxetan-3-yl]-2-methyl-5-[(pyridin-2-yl)methoxy]furo[2,3-c]pyridine-3-carboxamide]
19 | 1 to 20 | Cc1ncsc1COc1cc2c(C(=O)NC3(CO)CCOCC3)c(C)oc2cn1 [Cpd 035, N-[4-(hydroxymethyl)oxan-4-yl]-2-methyl-5-[(4-methyl-1,3-thiazol-5-yl)methoxy]furo[2,3-c]pyridine-3-carboxamide]
